Biological target: T1, galectin-3 (Homo sapiens, UniProt P17931)
T1 construct: gene LGALS3; recombinant human galectin-3, GST-purified with the GST tag removed
Test: intrinsic tryptophan fluorescence lifetime titration (direct waveform recording, excitation at […] nm), fit with n = […]
Assay type: binding

T1 sequence (P17931 2-250): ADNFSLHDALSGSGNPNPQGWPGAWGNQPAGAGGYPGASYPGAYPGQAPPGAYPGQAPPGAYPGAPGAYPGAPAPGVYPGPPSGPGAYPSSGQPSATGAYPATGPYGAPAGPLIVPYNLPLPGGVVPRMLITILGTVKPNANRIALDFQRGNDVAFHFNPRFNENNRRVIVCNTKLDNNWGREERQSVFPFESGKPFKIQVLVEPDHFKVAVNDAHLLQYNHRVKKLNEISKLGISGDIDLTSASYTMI

Kd: 54 ± 10 µM
Structure (SMILES): COC1O[C@H](CO)[C@@H](O[C@@H]2O[C@H](CO)[C@H](O)[C@H](O)[C@H]2O)[C@H](O)[C@H]1O (stereo partly shown) [methyllactose]

— article PMC7675582, “Time-Dependent Fluorescence Spectroscopy to Quantify Complex Binding Interactions” (ACS Omega, 2020)
